These results are taken from patent US8097620B2, “Diazaquinolones that inhibit prolyl hydroxylase activity” (Amgen Inc., priority 2007, dated 2012).

For the test, the target named is HIF PHD2 (Homo sapiens, UniProt Q9GZT9). The test can be described thus: PHD2 inhibition assay (TR-FRET, VCB-Eu detection of hydroxylated P564-HIF1α peptide). In kind it is biochemical. Conditions: 2 nM PHD2, 100 nM P564-HIF1α peptide, 0.25 μM 2-oxoglutarate, 100 μM FeCl2, 2 mM ascorbic acid, pH 6. As for the experimental part: Inhibition of HIF PHD2 activity was quantified utilizing the TR-FRET technology. HIF PHD2 catalyzes a hydroxyl modification on the proline residue of the P564-HIF1α peptide substrate (Biotin-[…] (SEQ ID NO: 7)) resulting in recognition and binding of the europylated Von Hippel-Lindau protein (pVHL), elongin B and elongin C heterotrimeric (VCB-Eu) complex.
Chain of HIF PHD2 (Q9GZT9 whole entry): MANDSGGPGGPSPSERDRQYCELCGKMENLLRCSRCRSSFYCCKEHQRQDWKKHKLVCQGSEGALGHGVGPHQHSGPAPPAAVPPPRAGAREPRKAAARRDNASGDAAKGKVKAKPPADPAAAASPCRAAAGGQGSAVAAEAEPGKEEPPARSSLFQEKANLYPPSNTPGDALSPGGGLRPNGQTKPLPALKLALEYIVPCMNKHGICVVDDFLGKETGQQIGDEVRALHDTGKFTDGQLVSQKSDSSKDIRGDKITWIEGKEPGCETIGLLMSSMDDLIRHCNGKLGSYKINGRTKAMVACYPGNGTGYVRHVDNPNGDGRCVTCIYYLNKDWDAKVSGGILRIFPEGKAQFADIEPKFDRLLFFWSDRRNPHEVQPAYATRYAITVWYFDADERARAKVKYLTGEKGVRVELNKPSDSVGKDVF
The PHD2 inhibition assay was executed by addition of freshly dissolved FeCl2 to 178.57 μM (100 μM final concentration) in PHD2 Reaction Buffer containing 30 mM MES, pH 6, 10 mM NaCl, 0.25% Brij-35, 0.01% BSA, and 1% DMSO. 28 μL of the iron solution and 2 μL of inhibitor compounds serially diluted in 100% DMSO (5% DMSO final) were added to black polypropylene 96-well microtiter plates. To that, 10 μL of 10 nM PHD2 (2 nM final) was added to all wells of the plate except for the 8 wells of column 12 (LO control), and allowed to incubate at room temperature on the shaker for one hour. Column 6 was the HI control containing PHD2 enzyme and 5% DMSO vehicle, but no inhibitor compound. To initiate the PHD2 enzymatic reaction, 10 μL of a solution containing 500 nM P564-HIF1α peptide (100 nM final), 10 mM ascorbic acid (2 mM final), and 1.25 μM 2-oxoglutarate (α-ketoglutarate; 0.25 μM final) in PHD2 Reaction Buffer was added to all wells of the plate and allowed to incubate on the shaker at room temperature for one hour.
The reaction was terminated by addition of 25 μL TR-FRET Buffer (50 mM TRIS-HCl, pH 9, 100 mM NaCl, 0.05% BSA, and 0.5% Tween-20) containing 150 mM succinate (product inhibitor; 50 mM final), 75 nM streptavidin-APC (25 nM final), and 7.5 nM VCB-Eu (2.5 nM final). The TR-FRET detection reagents were placed on a shaker for 1 hour to reach binding equilibrium before reading on the Discovery platform (PerkinElmer). Europium is excited at 315 nm and phosphoresces at 615 nm with a large Stoke's shift. APC, in turn, emits at 655 nm upon excitation at 615 nm. The TR-FRET signal is measured as the ratio of the APC 655 nm signal divided by the internal europium reference 615 nm emission signal.
The POC (percentage of control) was determined by comparing the signal from hydroxylated peptide substrate in the enzyme reaction containing inhibitor compound with that from PHD2 enzyme with DMSO vehicle alone (HI control), and no enzyme (LO control). POC was calculated using the formula: % control (POC)=(cpd−average LO)/(average HI−average LO)*100. Data (consisting of POC and inhibitor concentration in μM) was fitted to a 4-parameter equation (y=A+((B−A)/(1+((x/C)^D))), where A is the minimum y (POC) value, B is the maximum y (POC), C is the x (cpd concentration) at the point of inflection and D is the slope factor) using a Levenburg-Marquardt non-linear regression algorithm.
(Time-resolved FRET reads energy transfer from a long-lived donor to a nearby acceptor.)
For `CC(C)Oc1ccccc1-c1cc2c(O)c(C(=O)NCC(=O)O)c(=O)n(C)c2nn1` [Example 9, 2-(5-hydroxy-3-(2-isopropoxyphenyl)-8-methyl-7-oxo-7,8-dihydropyrido[2,3-c]pyridazine-6-carboxamido)acetic acid], the IC50 (commonly the concentration that inhibits the measured activity by half) was found to be 14 nM.
The figure for `Cn1c(=O)c(C(=O)NCC(=O)O)c(O)c2cc(-c3ccccc3)nnc21` [Example 2, 2-(5-hydroxy-8-methyl-7-oxo-3-phenyl-7,8-dihydropyrido[2,3-c]pyridazine-6-carboxamido)acetic acid] is 17 nM.
The figure for `CC(C)Oc1ccc(-c2cc3c(O)c(C(=O)NCC(=O)O)c(=O)n(C)c3nn2)cc1` [Example 8, 2-(5-hydroxy-3-(4-isopropoxyphenyl)-8-methyl-7-oxo-7,8-dihydropyrido[2,3-c]pyridazine-6-carboxamido)acetic acid] is 21 nM; for `Cn1c(=O)c(C(=O)NCC(=O)O)c(O)c2cnc(N3CCCC4CCCCC43)nc21` (stereo not drawn) [Example 21, 2-(5-hydroxy-8-methyl-2-(octahydroquinolin-1(2H)-yl)-7-oxo-7,8-dihydropyrido[2,3-d]pyrimidine-6-carboxamido)acetic acid] it is 152 nM.
The figure for `Cn1c(=O)c(C(=O)NCC(=O)O)c(O)c2cnc(-c3ccccc3N3CCOCC3)nc21` [Example 28, 2-(5-hydroxy-8-methyl-2-(2-morpholinophenyl)-7-oxo-7,8-dihydropyrido[2,3-d]pyrimidine-6-carboxamido)acetic acid] is 2.9 nM; for `CCC1CCCCN1c1ncc2c(O)c(C(=O)NCC(=O)O)c(=O)n(C)c2n1` (stereo not drawn) [Example 19, 2-(2-(2-ethylpiperidin-1-yl)-5-hydroxy-8-methyl-7-oxo-7,8-dihydropyrido[2,3-d]pyrimidine-6-carboxamido)acetic acid] it is 71 nM.
The compound `Cn1c(=O)c(C(=O)NCC(=O)O)c(O)c2cnc(-c3cccc4ncccc34)nc21` [Example 35, 2-(5-hydroxy-8-methyl-7-oxo-2-(quinolin-5-yl)-7,8-dihydropyrido[2,3-d]pyrimidine-6-carboxamido)acetic acid] returned a concentration for half-maximal inhibition (IC50) of 2.4 nM.
With `Cn1c(=O)c(C(=O)NCC(=O)O)c(O)c2cnc(C#CC3CC3)nc21` [Example 23, 2-(2-(2-cyclopropylethynyl)-5-hydroxy-8-methyl-7-oxo-7,8-dihydropyrido[2,3-d]pyrimidine-6-carboxamido)acetic acid], the IC50 is 12 nM.
To `Cn1c(=O)c(C(=O)NCC(=O)O)c(O)c2cnc(-c3ccccc3F)nc21` [Example 26, 2-(2-(2-fluorophenyl)-5-hydroxy-8-methyl-7-oxo-7,8-dihydropyrido[2,3-d]pyrimidine-6-carboxamido)acetic acid] belongs 1.5 nM; to `Cn1c(=O)c(C(=O)NCC(=O)O)c(O)c2cnc(-c3cnc4ccccc4c3)nc21` [Example 49, 2-(5-hydroxy-8-methyl-7-oxo-2-(quinolin-3-yl)-7,8-dihydropyrido[2,3-d]pyrimidine-6-carboxamido)acetic acid], 3.2 nM; to `Cn1c(=O)c(C(=O)NCC(=O)O)c(O)c2cnc(-c3ccccc3)nc21` [Example 25, 2-(5-hydroxy-8-methyl-7-oxo-2-phenyl-7,8-dihydropyrido[2,3-d]pyrimidine-6-carboxamido)acetic acid], 4.3 nM.
To `CC(C)Oc1cccc(-c2cc3c(O)c(C(=O)NCC(=O)O)c(=O)n(C)c3nn2)c1` [Example 7, 2-(5-hydroxy-3-(3-isopropoxyphenyl)-8-methyl-7-oxo-7,8-dihydropyrido[2,3-c]pyridazine-6-carboxamido)acetic acid] belongs 26 nM; to `Cn1ccc2cc(-c3ncc4c(O)c(C(=O)NCC(=O)O)c(=O)n(C)c4n3)ccc21` [Example 44, 2-(5-hydroxy-8-methyl-2-(1-methyl-1H-indol-5-yl)-7-oxo-7,8-dihydropyrido[2,3-d]pyrimidine-6-carboxamido)acetic acid], 7.8 nM; to `Cn1c(=O)c(C(=O)NCC(=O)O)c(O)c2cnc(-c3ccoc3)nc21` [Example 30, 2-(2-(furan-3-yl)-5-hydroxy-8-methyl-7-oxo-7,8-dihydropyrido[2,3-d]pyrimidine-6-carboxamido)acetic acid], 5.3 nM.
To `Cn1c(=O)c(C(=O)NCC(=O)O)c(O)c2cnc(-c3ccc4occc4c3)nc21` [Example 48, 2-(2-(benzofuran-5-yl)-5-hydroxy-8-methyl-7-oxo-7,8-dihydropyrido[2,3-d]pyrimidine-6-carboxamido)acetic acid] belongs 7.1 nM; to `Cn1c(=O)c(C(=O)NCC(=O)O)c(O)c2cnc(-c3cccc4[nH]ccc34)nc21` [Example 56, 2-(5-hydroxy-2-(1H-indol-4-yl)-8-methyl-7-oxo-7,8-dihydropyrido[2,3-d]pyrimidine-6-carboxamido)acetic acid], 5.3 nM.
For `Cn1c(=O)c(C(=O)NCC(=O)O)c(O)c2cnc(-c3ccco3)nc21` [Example 38, 2-(2-(furan-2-yl)-5-hydroxy-8-methyl-7-oxo-7,8-dihydropyrido[2,3-d]pyrimidine-6-carboxamido)acetic acid], 2.5 nM corresponded to half-maximal inhibition (IC50).
On to `Cn1c(=O)c(C(=O)NCC(=O)O)c(O)c2cnc(-c3cc4ccccc4s3)nc21` [Example 36, 2-(2-(benzo[b]thiophen-2-yl)-5-hydroxy-8-methyl-7-oxo-7,8-dihydropyrido[2,3-d]pyrimidine-6-carboxamido)acetic acid], for which the IC50 worked out at 7.4 nM.
The figure for `COc1ccc(-c2ncc3c(O)c(C(=O)NCC(=O)O)c(=O)n(C)c3n2)cc1` [Example 33, 2-(5-hydroxy-2-(4-methoxyphenyl)-8-methyl-7-oxo-7,8-dihydropyrido[2,3-d]pyrimidine-6-carboxamido)acetic acid] is 6.4 nM; for `Cn1c(=O)c(C(=O)NCC(=O)O)c(O)c2cnc(-c3ccc(N4CCCCC4)cc3)nc21` [Example 32, 2-(5-hydroxy-8-methyl-7-oxo-2-(4-(piperidin-1-yl)phenyl)-7,8-dihydropyrido[2,3-d]pyrimidine-6-carboxamido)acetic acid] it is 5.3 nM.
To `Cn1c(=O)c(C(=O)NCC(=O)O)c(O)c2cnc(N3CCCC3)nc21` [Example 15, 2-(5-hydroxy-8-methyl-7-oxo-2-(pyrrolidin-1-yl)-7,8-dihydropyrido[2,3-d]pyrimidine-6-carboxamido)acetic acid] belongs 7.35 nM; to `Cn1c(=O)c(C(=O)NCC(=O)O)c(O)c2cnc(-c3ccc(Cl)cc3)nc21` [Example 39, 2-(2-(4-chlorophenyl)-5-hydroxy-8-methyl-7-oxo-7,8-dihydropyrido[2,3-d]pyrimidine-6-carboxamido)acetic acid], 7.8 nM; to `Cc1ccccc1-c1ncc2c(O)c(C(=O)NCC(=O)O)c(=O)n(C)c2n1` [Example 50, 2-(5-hydroxy-8-methyl-7-oxo-2-o-tolyl-7,8-dihydropyrido[2,3-d]pyrimidine-6-carboxamido)acetic acid], 3.6 nM.
The figure for `Cn1c(=O)c(C(=O)NCC(=O)O)c(O)c2cnc(N3CCOCC3)nc21` [Example 13, 2-(5-hydroxy-8-methyl-2-morpholino-7-oxo-7,8-dihydropyrido[2,3-d]pyrimidine-6-carboxamido)acetic acid] is 240 nM; for `COc1ncc2c(O)c(C(=O)NCC(=O)O)c(=O)n(C)c2n1` [Example 12, 2-(5-hydroxy-2-methoxy-8-methyl-7-oxo-7,8-dihydropyrido[2,3-d]pyrimidine-6-carboxamido)acetic acid] it is 18 nM.
`Cn1c(=O)c(C(=O)NCC(=O)O)c(O)c2cnc(N3CCCCC3)nc21` [Example 11, 2-(5-hydroxy-8-methyl-7-oxo-2-(piperidin-1-yl)-7,8-dihydropyrido[2,3-d]pyrimidine-6-carboxamido)acetic acid] came in with a half-maximal inhibitory concentration (IC50) of 16 nM.
The figure for `Cn1c(-c2ncc3c(O)c(C(=O)NCC(=O)O)c(=O)n(C)c3n2)cc2ccccc21` [Example 57, 2-(5-hydroxy-8-methyl-2-(1-methyl-1H-indol-2-yl)-7-oxo-7,8-dihydropyrido[2,3-d]pyrimidine-6-carboxamido)acetic acid] is 14 nM.
